Data as given in EP4653008A1, “TRADITIONAL CHINESE MEDICINE COMPOSITION HAVING EFFICACY IN TREATING COLDS AND USE THEREOF” (Shijiazhuang Yiling Pharmaceutical Co., Ltd., priority 2023, dated 2024).

Assays:
ICR mice [1] = assay: ear-swelling in mice caused by xylene; type: in vivo; conditions: 0.50g/kg
Method: Referring to the specification and literature documents, the dose of aspirin drug administered to mice was set at 0.50 g/kg, as shown in Table 25.
(§1) A disposable syringe was used to administer the drug at a dosing volume of 10 ml/kg. Animals in the model group were administered with a corresponding volume of the solvent. The administration was carried out for 5 days.
After receiving new experimental animals, they were numbered and subjected to an adaptive feeding for at least 5 days. The grouping was carried out as described previously. 0.5 h after the last administration, the animal was fixed, and the right ear was exposed. The xylene was applied to the middle area of the right ear of the mice by dropwise addition using a pipette, with each 15 µL of xylene applied to dorsal and ventral sides and spread evenly. The left ear was left untreated. After 40 min, the animal was sacrificed by cervical dislocation. Both ears were then cut along the base of the auricle. A punch (7 mm diameter) was used to obtain symmetrical ear tissues from both ears, which were weighed on a precision analytical balance. The weights were recorded, and the degree of swelling and the swelling inhibition rate were calculated. Swelling degree = weight of the right ear tissue - weight of the left ear tissue [formula] [formula]

SD rats = assay: fever in rats induced by intraperitoneal injection of LPS; type: in vivo; conditions: 3h after LPS, 26.64 mg/kg
ICR mice [2] = assay: writhing in mice caused by acetic acid; type: in vivo; conditions: 5.00 mg/kg
Method: Referring to the previous studies in our laboratory and relevant literatures, the dose of indomethacin drug administered to mice was set at 5.00 mg/kg, as shown in Table 23.
as §1
After receiving new experimental animals, they were numbered, subjected to an adaptive feeding for 5 days and grouped as described above. All animals were fasted for more than 12 h before the last administration, and 1 h after the last administration, 0.7% acetic acid was injected into the abdominal cavity of mice at a dose of 10ml/kg to stimulate the visceral and parietal peritoneum, leading to a deep, widespread, and long-time pain. […] The latency period to the onset of writhing and the number of writhing incidents within 15 min were recorded as quantitative indicators of pain.

H1HeLa = assay: cells; type: cell-based; conditions: Homo sapiens, H1-HeLa, 72 h, n=3
MDCK = assay: in vitro cytotoxicity (CCK-8); type: cell-based, canine; conditions: Canis lupus familiaris; MDCK cells; 72 h; n=3
Method: • (1) Test Grouping: The appropriate starting concentration of the pharmaceutical composition was selected for test grouping according to the references. All the pharmaceutical compositions were diluted with serum-free DMEM medium. For the cell control group, only serum-free DMEM medium was used. […] For the positive control drug group, oseltamivir acid as a positive drug was set up at concentrations of 1000, 500, 250, 125, 62.5, and 31.25 µM. […] Recombinant human interferon α2b gel as a positive drug was set up at final concentrations of 1000, 333.33, 111.11, […], 33.33, and 11.11 IU/mL. The blank control group contained only serum-free DMEM medium and no cells. Three replicate wells were set up for each concentration in each group. • (2) Cell Plating: Cells were prepared into a suspension single cells (1×10^4 cells/mL), seeded to a 96-well cell culture plate (100 µL/well), and incubated overnight in a 37°C, 5% CO2 incubator. • (3) Addition of Drug and Test: The culture medium was discarded and the cells were washed twice with 1×PBS. […] After cells were incubated in the incubator for 1-4 h, the OD450 nm value was read using a microplate reader. The inhibition rate of cells and the half maximal inhibitory concentration (IC50) of the tested drugs on cells were calculated. […]

influenza A virus (H3N2) = assay: in vitro antiviral assay (CPE, CCK-8); type: cell-based; conditions: MDCK host cells, n=4
influenza B virus (IBV) = assay: in vitro antiviral assay (CPE, CCK-8); type: cell-based; conditions: MDCK host cells, n=4
IFN-γ = IFN-γ in tissues (ELISA), coxsackievirus infection model of young rats
IL-10 = IL-10 in tissues (ELISA), coxsackievirus infection model of young rats
Coxsackievirus B3 (CVB3) [3] = assay: viral load in gastrointestinal tissues, coxsackievirus infection model of young rats; type: in vivo, young SD rats
Method: Each group consisted of 50 animals.
Homogenization was carried out using a high-speed homogenizer to prepare a tissue suspension. The suspension was centrifuged at 14000 rpm for 10 min at 4°C and the resulting supernatant was collected. RNA was extracted using the RNA extraction solution, and the extracted RNA was reverse transcribed into c-DNA. The fluorescence intensity of c-DNA obtained by reverse transcription was measured by using absolute quantitative PCR, and the fluorescence intensity of c-DNA was used to reflect the load of coxsackievirus B3 in the tissues of the stomach, small intestine, and large intestine.

[4] = tested on: lymphocyte (CD4^+ and CD8^+); assay: lymphocytes in blood (flow cytometry), coxsackievirus infection model of young rats; conditions: 120.7mg/kg; for CD4^+/CD8^+: ratio
IL-1β = IL-1β in tissues (ELISA), coxsackievirus infection model of young rats
Coxsackievirus B3 (CVB3) [5] = assay: pathological changes of gastrointestinal tract, coxsackievirus infection model of young rats; conditions: animals with this lesion grade (n=10), 120.7 mg/kg
TNF-α = TNF-α in tissues (ELISA), coxsackievirus infection model of young rats
[6] = 3 days after administration, 120.7 mg/kg
[7] = next day after last administration, 120.7mg/kg
[8] = next day after the last administration
[9] = next day after last administration

CC(=O)Oc1ccccc1C(=O)O [Aspirin, aspirin]
Swelling degree (ICR mice [1]): 5.53 ± 2.81 mg | Swelling inhibition rate (%) (ICR mice [1]): 50.34%

CC(C)Cc1ccc(C(C)C(=O)O)cc1 (stereo not shown) [Ibuprofen]
ΔT (ΔT =Tx-T0) °C (SD rats): 0.28 ± 0.48 °C

COc1ccc2c(c1)c(CC(=O)O)c(C)n2C(=O)c1ccc(Cl)cc1 [Indomethacin, indomethacin]
Latency period (ICR mice [2]; onset of writhing): 736.83 ± 258.16 s | Number of writhing incident (ICR mice [2]; within 15 min): 2.17±4.53

CCC(CC)O[C@@H]1C=C(C(=O)O)C[C@H](N)[C@H]1NC(C)=O [Oseltamivir acid, Oseltamivir Acid]
IC50 (H1HeLa): 1 µM | IC50 (MDCK): > 1000 µM | EC50 (influenza A virus (H3N2)): 0.931 µM | EC50 (influenza B virus (IBV)): 0.0806 µM

NC(=O)c1ncn([C@@H]2O[C@H](CO)[C@@H](O)[C@H]2O)n1 [Ribavirin granule, Ribavirin]
IFN-γ Large intestine (IFN-γ; D4, 120.7mg/kg): 18364 ± 1203 pg/mg | IFN-γ Small intestine (IFN-γ; D4, 120.7mg/kg): 16295 ± 865 pg/mg | IFN-γ Stomach (IFN-γ; D4, 120.7mg/kg): 18235 ± 816 pg/mg | IFN-γ Large intestine (IFN-γ; D8, 120.7 mg/kg): 19728 ± 926 pg/mg | IFN-γ Small intestine (IFN-γ; D8, 120.7 mg/kg): 17443 ± 1296 pg/mg | IFN-γ Stomach (IFN-γ; D8, 120.7 mg/kg): 16481 ± 1093 pg/mg | IL-10 Large intestine (IL-10; D4, 120.7mg/kg): 497 ± 28 pg/mg | IL-10 Small intestine (IL-10; D4, 120.7mg/kg): 473 ± 23 pg/mg | IL-10 Stomach (IL-10; D4, 120.7mg/kg): 509 ± 37 pg/mg | IL-10 Large intestine (IL-10; D8, 120.7 mg/kg): 496 ± 50 pg/mg | viral load, Large intestine (Coxsackievirus B3 (CVB3) [3]; [6]): 515.92±226.55 Copies/mg | viral load, Small intestine (Coxsackievirus B3 (CVB3) [3]; [6]): 947.76±811.44 Copies/mg | viral load, Stomach (Coxsackievirus B3 (CVB3) [3]; [6]): 49.19±11.47 Copies/mg | viral load, Large intestine (Coxsackievirus B3 (CVB3) [3]; [7]): 16346.45±20084.56 Copies/mg | viral load, Small intestine (Coxsackievirus B3 (CVB3) [3]; [7]): 308.03±198.76 Copies/mg | viral load, Stomach (Coxsackievirus B3 (CVB3) [3]; [7]): 104.75±74.10 Copies/mg | % lymphocyte CD4^+ ([4]; 3 days after administration): 33.31±8.66% | % lymphocyte CD8^+ ([4]; 3 days after administration): 20.52±5.91% | % lymphocyte CD4^+ [4, 8]: 22.69±4.04% | % lymphocyte CD8^+ [4, 8]: 11.40±2.18% | CD4^+/CD8^+ ([4]; 3 days after administration): 1.65±0.18 | CD4^+/CD8^+ [4, 8]: 2.03±0.37 | IL-1β Large intestine (IL-1β; D4, 120.7mg/kg): 317 ± 18 pg/mg | IL-1β Small intestine (IL-1β; D4, 120.7mg/kg): 318 ± 23 pg/mg | IL-1β Stomach (IL-1β; D4, 120.7mg/kg): 291 ± 20 pg/mg | IL-1β Large intestine (IL-1β; D8, 120.7 mg/kg): 320 ± 34 pg/mg | IL-1β Small intestine (IL-1β; D8, 120.7 mg/kg): 340 ± 21 pg/mg | IL-1β Stomach (IL-1β; D8, 120.7 mg/kg): 308 ± 24 pg/mg | Cecum and rectum + (Coxsackievirus B3 (CVB3) [5]; 3 days after administration): 3 | Cecum and rectum + + (Coxsackievirus B3 (CVB3) [5]; 3 days after administration): 0 | Cecum and rectum - (Coxsackievirus B3 (CVB3) [5]; 3 days after administration): 7 | Duodenum and jejunum + (Coxsackievirus B3 (CVB3) [5]; 3 days after administration): 0 | Duodenum and jejunum + + (Coxsackievirus B3 (CVB3) [5]; 3 days after administration): 0 | Ileum and colon + (Coxsackievirus B3 (CVB3) [5]; 3 days after administration): 2 | Ileum and colon + + (Coxsackievirus B3 (CVB3) [5]; 3 days after administration): 3 | Ileum and colon - (Coxsackievirus B3 (CVB3) [5]; 3 days after administration): 5 | Stomach + (Coxsackievirus B3 (CVB3) [5]; 3 days after administration): 9 | Stomach + + (Coxsackievirus B3 (CVB3) [5]; 3 days after administration): 1 | Stomach - (Coxsackievirus B3 (CVB3) [5]; 3 days after administration): 0 | Cecum and rectum + (Coxsackievirus B3 (CVB3) [5]; [9]): 5 | Cecum and rectum + + (Coxsackievirus B3 (CVB3) [5]; [9]): 2 | Cecum and rectum - (Coxsackievirus B3 (CVB3) [5]; [9]): 3 | Duodenum and jejunum + (Coxsackievirus B3 (CVB3) [5]; [9]): 0 | Duodenum and jejunum + + (Coxsackievirus B3 (CVB3) [5]; [9]): 0 | Ileum and colon + (Coxsackievirus B3 (CVB3) [5]; [9]): 2 | Ileum and colon + + (Coxsackievirus B3 (CVB3) [5]; [9]): 3 | Ileum and colon - (Coxsackievirus B3 (CVB3) [5]; [9]): 5 | Stomach + (Coxsackievirus B3 (CVB3) [5]; [9]): 5 | Stomach + + (Coxsackievirus B3 (CVB3) [5]; [9]): 0 | Stomach - (Coxsackievirus B3 (CVB3) [5]; [9]): 5 | TNF-α Large intestine (TNF-α; D4, 120.7mg/kg): 2557 ± 100 pg/mg | TNF-α Small intestine (TNF-α; D4, 120.7mg/kg): 2806 ± 158 pg/mg | TNF-α Large intestine (TNF-α; D8, 120.7 mg/kg): 2491 ± 151 pg/mg | TNF-α Small intestine (TNF-α; D8, 120.7 mg/kg): 2698 ± 145 pg/mg | TNF-α Stomach (TNF-α; D8, 120.7 mg/kg): 2731 ± 96 pg/mg
